Measured values from the NIST ThermoML archive (doi:10.1016/j.jct.2012.08.019).

Columns and labels:
[1] = 323.2 K, Liquid, Vibrating tube method
[2] = xn = mol fraction of the nth substance listed; conditions: Liquid; for viscosity: Moving piston method; for mass density: Vibrating tube method

CCCCCCCCCCCCCC [tetradecane]
[1]
Conditions	mass density [kg/m3]
100 kPa	741.3
1000 kPa	742.1
2000 kPa	742.9
3000 kPa	743.7
4000 kPa	744.4
5000 kPa	745.2
6000 kPa	746
7000 kPa	746.7
8000 kPa	747.5
9000 kPa	748.2
10000 kPa	749

CCCCCCCCCCCCCC [tetradecane] + O=C=O
[2]
Conditions	mass density, 323.3 K [kg/m3]	viscosity, 323.2 K [mPa·s]
980 kPa, x2 = 0.097	744	1.18
2060 kPa, x2 = 0.196	748	1.08
3000 kPa, x2 = 0.279	751	0.96
4030 kPa, x2 = 0.358	755	0.79
4960 kPa, x2 = 0.429	758	0.67
6000 kPa, x2 = 0.496	762	0.56

CCCCCCCCCC [decane] + O=C=O
[2]
Conditions	mass density, 323.3 K [kg/m3]	viscosity, 323.2 K [mPa·s]
1020 kPa, x2 = 0.094	711	0.56
2080 kPa, x2 = 0.19	716	0.46
2970 kPa, x2 = 0.263	720	0.42
3940 kPa, x2 = 0.353	724	0.38
4910 kPa, x2 = 0.429	729	0.33
5960 kPa, x2 = 0.513	735	0.28

CCCCCCCCCC [decane]
[1]
Conditions	mass density [kg/m3]
100 kPa	707
1000 kPa	707.9
2000 kPa	708.8
3000 kPa	709.7
4000 kPa	710.6
5000 kPa	711.5
6000 kPa	712.4
7000 kPa	713.3
8000 kPa	714.1
9000 kPa	715
10000 kPa	715.9

CCCCCCCCCC [decane] + CCCCCCCCCCCCCC
[2], 323.2 K, x1 = 1
Conditions	mass density [kg/m3]
100 kPa	707
1000 kPa	707.9
2000 kPa	708.8
3000 kPa	709.7
4000 kPa	710.6
5000 kPa	711.5
6000 kPa	712.4
7000 kPa	713.3
8000 kPa	714.1
9000 kPa	715
10000 kPa	715.9

CCCCCCCCCCCCCC [tetradecane] + CCCCCCCCCC
mass density [kg/m3], [2], 323.2 K
Conditions	x2 = 0	x2 = 0.25	x2 = 0.5	x2 = 0.75
100 kPa	741.3	734.3	726.5	717.2
1000 kPa	742.1	735.1	727.4	718.1
2000 kPa	742.9	735.9	728.2	719
3000 kPa	743.7	736.7	729.1	719.8
4000 kPa	744.4	737.5	729.8	720.7
5000 kPa	745.2	738.3	730.7	721.6
6000 kPa	746	739.1	731.5	722.5
7000 kPa	746.7	739.9	732.4	723.2
8000 kPa	747.5	740.7	733.2	724
9000 kPa	748.2	741.5	734	724.9
10000 kPa	749	742.2	734.8	725.8
